In patent US9695155B2, “Herbicidal substituted pyrimidinyloxy benzene compounds” (E. I. DU PONT DE NEMOURS AND COMPANY, priority 2013, dated 2017):

Tests used:
canarygrass = assay: Test D preemergence; type: in vivo, Phalaris minor; details: Phalaris minor, pre-emergence, scale 0-100, read-out: Plant response rating, Canarygrass
Procedure, shortened: (§1)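 In a controlled growth environment, treated and control plants were held 7 to 21 days, then compared visually. Damage was scored 0–100, where 100 means complete control. Sprays contained surfactant in a non-phytotoxic solvent; post-applied plants were at the 1- to 4-leaf stage.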

green foxtail [1] = assay: Test D preemergence; type: in vivo, Setaria viridis; details: Setaria viridis, pre-emergence, scale 0-100, read-out: Plant response rating, Foxtail, Green
Procedure, shortened: as §1

deadnettle = assay: Test D preemergence; type: in vivo, Lamium amplexicaule; details: Lamium amplexicaule, pre-emergence, scale 0-100, read-out: Plant response rating, Deadnettle
Procedure, shortened: as §1

speedwell = assay: Test D preemergence; type: in vivo, Veronica persica; details: Veronica persica, pre-emergence
Procedure, shortened: as §1

wild radish = assay: Test D preemergence; type: in vivo, Raphanus raphanistrum; details: Raphanus raphanistrum, pre-emergence
Procedure, shortened: as §1

bluegrass = assay: Test D postemergence; type: in vivo, Poa annua; details: Poa annua, post-emergence, Postemergence, scale 0 to 100 (0 no effect, 100 complete control), read-out: Plant response rating, Bluegrass
Procedure, shortened: as §1

green foxtail [2] = assay: Test D postemergence; type: in vivo, Setaria viridis; details: Setaria viridis, post-emergence, scale 0 to 100 (0 no effect, 100 complete control), read-out: Plant response rating, Foxtail, Green
Procedure, shortened: as §1

spring wheat = assay: Test D postemergence; type: in vivo, Triticum aestivum; details: Triticum aestivum, post-emergence, scale 0 to 100 (0 no effect, 100 complete control), read-out: Plant response rating, Wheat, Spring
Procedure, shortened: as §1

winter wheat = assay: Test D postemergence; type: in vivo, Triticum aestivum; details: Triticum aestivum, post-emergence, scale 0 to 100 (0 no effect, 100 complete control), read-out: Plant response rating, Wheat, Winter
Procedure, shortened: as §1

wild oat = assay: Test D postemergence; type: in vivo, Avena fatua; details: Avena fatua, post-emergence, scale 0 to 100 (0 no effect, 100 complete control), read-out: Plant response rating, Oat, Wild
Procedure, shortened: as §1

corn = assay: Test E preemergence; type: in vivo, Zea mays; details: for Corn plant response rating: scale 0 to 100 (0 no effect, 100 complete control); for Plant response rating, Corn: scale 0 to 100, 0 no effect, 100 complete control
Procedure, shortened: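 Compound in a non-phytotoxic solvent mixture with surfactant was applied preemergence to seeds in silt loam soil, or postemergence to plants 2 to 18 cm tall grown in peat-based potting medium. Plants were kept in a greenhouse for 14 to 21 days, then rated visually against untreated controls on a 0 (no effect) to 100 (complete control) scale.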

Compound `N#Cc1cccc(Oc2ncc(Cl)cn2)c1-n1cc(Br)cn1` [Compound 52, 2-(4-bromo-1H-pyrazol-1-yl)-3-[(5-chloro-2-pyrimidinyl)oxy]benzonitrile] has a pest or weed control at 31 g/ha (canarygrass; 31 g ai/ha) of 0%, a pest or weed control at 62 g/ha (canarygrass; 62 g ai/ha) of 0% and a pest or weed control at 125 g/ha (canarygrass; 125 g ai/ha) of 35%. The pest or weed control at 250 g/ha (canarygrass; 250 g ai/ha) was 55%, the pest or weed control at 31 g/ha (green foxtail [1]; 31 g ai/ha) was 20% and the pest or weed control at 62 g/ha (green foxtail [1]; 62 g ai/ha) was 60%. It also gave a pest or weed control at 125 g/ha (green foxtail [1]; 125 g ai/ha) of 100%, a pest or weed control at 250 g/ha (green foxtail [1]; 250 g ai/ha) of 100% and a pest or weed control at 31 g/ha (deadnettle; 31 g ai/ha) of 70%. The pest or weed control at 62 g/ha (deadnettle; 62 g ai/ha) was 75%, the pest or weed control at 125 g/ha (deadnettle; 125 g ai/ha) was 100% and the pest or weed control at 250 g/ha (deadnettle; 250 g ai/ha) was 100%. For the same compound, the pest or weed control at 31 g/ha (speedwell; 31 g ai/ha, scale 0 (no effect) to 100 (complete control), read-out: Plant response rating, Speedwell) was 100%, the pest or weed control at 62 g/ha (speedwell; 62 g ai/ha, scale 0-100, read-out: Plant response rating, Speedwell) was 100% and the pest or weed control at 125 g/ha (speedwell; 125 g ai/ha, scale 0-100, read-out: Plant response rating, Speedwell) was 100%. It also gave a pest or weed control at 250 g/ha (speedwell; 250 g ai/ha, scale 0-100, read-out: Plant response rating, Speedwell) of 100%, a pest or weed control at 31 g/ha (wild radish; 31 g ai/ha, scale 0 (no effect) to 100 (complete control), read-out: Plant response rating, Radish, Wild) of 30% and a pest or weed control at 62 g/ha (wild radish; 62 g ai/ha, scale 0-100, read-out: Plant response rating, Radish, Wild) of 80%. It also gave a pest or weed control at 125 g/ha (wild radish; 125 g ai/ha, scale 0-100, read-out: Plant response rating, Radish, Wild) of 95%, a pest or weed control at 250 g/ha (wild radish; 250 g ai/ha, scale 0-100, read-out: Plant response rating, Radish, Wild) of 100% and a pest or weed control at 31 g/ha (bluegrass; 31 g ai/ha) of 15%. The pest or weed control at 62 g/ha (bluegrass; 62 g ai/ha) was 20%, the pest or weed control at 125 g/ha (bluegrass; 125 g ai/ha) was 15% and the pest or weed control at 250 g/ha (bluegrass; 250 g ai/ha) was 25%. The pest or weed control at 31 g/ha (green foxtail [2]; 31 g ai/ha) was 15%, the pest or weed control at 62 g/ha (green foxtail [2]; 62 g ai/ha) was 20% and the pest or weed control at 125 g/ha (green foxtail [2]; 125 g ai/ha) was 40%. The pest or weed control at 250 g/ha (green foxtail [2]; 250 g ai/ha) was 75%, the plant injury at 31 g/ha (spring wheat; 31 g ai/ha) was 5% and the plant injury at 62 g/ha (spring wheat; 62 g ai/ha) was 10%. It also gave a plant injury at 125 g/ha (spring wheat; 125 g ai/ha) of 10%, a plant injury at 250 g/ha (spring wheat; 250 g ai/ha) of 15% and a plant injury at 31 g/ha (winter wheat; 31 g ai/ha) of 10%. The plant injury at 62 g/ha (winter wheat; 62 g ai/ha) was 15%, the plant injury at 125 g/ha (winter wheat; 125 g ai/ha) was 20% and the plant injury at 250 g/ha (winter wheat; 250 g ai/ha) was 25%. The pest or weed control at 31 g/ha (wild oat; 31 g ai/ha) was 20%, the pest or weed control at 62 g/ha (wild oat; 62 g ai/ha) was 35% and the pest or weed control at 125 g/ha (wild oat; 125 g ai/ha) was 30%. The pest or weed control at 250 g/ha (wild oat; 250 g ai/ha) was 35%, the “Corn plant response rating” value (corn; 16 g ai/ha) was 0 and the “Corn plant response rating” value (corn; 31 g ai/ha) was 0. For the same compound, the “Corn plant response rating” value (corn; 62 g ai/ha) was 0, the “Plant response rating, Corn” value (corn; 125 g ai/ha) was 0 and the “Plant response rating, Corn” value (corn; 250 g ai/ha) was 40.
